The supplement of paper PMC10307832

Key:
Assay in all cases: relative viability (nuclei count vs DMSO), 5 days (fraction); higher = more cells survive
[1] = compound: O=C(/C=C/c1ccccc1)NC(NC(=S)Nc1cccc2cccnc12)C(Cl)(Cl)Cl [Salubrinal] + CC(C)C[C@H](NC(=O)[C@H](Cc1ccccc1)NC(=O)c1cnccn1)B(O)O [Bortezomib] (partner 0.002 µM)
Outline: (§1)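 Lung cancer cell lines were pin-tool dosed in 1536-well plates on the day after seeding, with either a lone drug or a fixed anchor-drug dose plus five library-drug doses (not always all listed) in √10 steps. Nuclei were counted on 4× images after 5 days. Relative viability is the ratio of treated-well to vehicle-well nuclei counts, with each value a median of duplicate plates.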

[2] = compound: Cc1ccc2nc(NCCN)c3ncc(C)n3c2c1 + CC(=O)c1c(C)c2cnc(Nc3ccc(N4CCNCC4)cn3)nc2n(C2CCCC2)c1=O [Palbociclib] (partner 0.5 µM)
Outline: as §1

[3] = compound: Cc1ccc2nc(NCCN)c3ncc(C)n3c2c1 + C[C@@H](Oc1cc(-c2cnn(C3CCNCC3)c2)cnc1N)c1c(Cl)ccc(F)c1Cl [Crizotinib] (partner 1 µM)
Outline: as §1

[4] = compound: O=C(/C=C/c1ccccc1)NC(NC(=S)Nc1cccc2cccnc12)C(Cl)(Cl)Cl [Salubrinal] + O=C(CCCCCCC(=O)Nc1ccccc1)NO [Vorinostat] (partner 1 µM)
Outline: as §1

## LCLC-103H
[1]; first compound 0.08 µM
  relative viability: 0.97
[1]; first compound 0.253 µM
  relative viability: 0.971
[1]; first compound 0.8 µM
  relative viability: 1.2
[1]; first compound 2.53 µM
  relative viability: 1
[1]; first compound 8 µM
  relative viability: 1.15
[2]; first compound 0.04 µM
  relative viability: 0.463
[2]; first compound 0.1265 µM
  relative viability: 0.462
[2]; first compound 0.4 µM
  relative viability: 0.428
[2]; first compound 1.265 µM
  relative viability: 0.497
[2]; first compound 4 µM
  relative viability: 0.488
[3]; first compound 0.04 µM
  relative viability: 1.07
[3]; first compound 0.1265 µM
  relative viability: 1.03
[3]; first compound 0.4 µM
  relative viability: 1.05
[3]; first compound 1.265 µM
  relative viability: 1.07
[3]; first compound 4 µM
  relative viability: 1.06
[4]; first compound 0.08 µM
  relative viability: 0.725
[4]; first compound 0.253 µM
  relative viability: 0.716
[4]; first compound 0.8 µM
  relative viability: 0.891
[4]; first compound 2.53 µM
  relative viability: 0.714
[4]; first compound 8 µM
  relative viability: 0.748

## LOU-NH91
[1]; first compound 0.08 µM
  relative viability: 0.481
[1]; first compound 0.253 µM
  relative viability: 0.406
[1]; first compound 0.8 µM
  relative viability: 0.55
[1]; first compound 2.53 µM
  relative viability: 0.505
[1]; first compound 8 µM
  relative viability: 0.477
[2]; first compound 0.04 µM
  relative viability: 0.551
[2]; first compound 0.1265 µM
  relative viability: 0.509
[2]; first compound 0.4 µM
  relative viability: 0.52
[2]; first compound 1.265 µM
  relative viability: 0.542
[2]; first compound 4 µM
  relative viability: 0.464
[3]; first compound 0.04 µM
  relative viability: 0.753
[3]; first compound 0.1265 µM
  relative viability: 0.714
[3]; first compound 0.4 µM
  relative viability: 0.748
[3]; first compound 1.265 µM
  relative viability: 0.727
[3]; first compound 4 µM
  relative viability: 0.749
[4]; first compound 0.08 µM
  relative viability: 0.933
[4]; first compound 0.253 µM
  relative viability: 0.925
[4]; first compound 0.8 µM
  relative viability: 1.08
[4]; first compound 2.53 µM
  relative viability: 0.903
[4]; first compound 8 µM
  relative viability: 0.841

## LU99A
[1]; first compound 0.08 µM
  relative viability: 1.3
[1]; first compound 0.253 µM
  relative viability: 1.31
[1]; first compound 0.8 µM
  relative viability: 1.37
[1]; first compound 2.53 µM
  relative viability: 0.971
[1]; first compound 8 µM
  relative viability: 0.909
[2]; first compound 0.04 µM
  relative viability: 0.468
[2]; first compound 0.1265 µM
  relative viability: 0.447
[2]; first compound 0.4 µM
  relative viability: 0.434
[2]; first compound 1.265 µM
  relative viability: 0.456
[2]; first compound 4 µM
  relative viability: 0.41
[3]; first compound 0.04 µM
  relative viability: 0.636
[3]; first compound 0.1265 µM
  relative viability: 0.549
[3]; first compound 0.4 µM
  relative viability: 0.49
[3]; first compound 1.265 µM
  relative viability: 0.565
[3]; first compound 4 µM
  relative viability: 0.635
[4]; first compound 0.08 µM
  relative viability: 0.621
[4]; first compound 0.253 µM
  relative viability: 0.481
[4]; first compound 0.8 µM
  relative viability: 0.578
[4]; first compound 2.53 µM
  relative viability: 0.546
[4]; first compound 8 µM
  relative viability: 0.513

## LXF-289
[1]; first compound 0.08 µM
  relative viability: 1.06
[1]; first compound 0.253 µM
  relative viability: 0.654
[1]; first compound 0.8 µM
  relative viability: 1.06
[1]; first compound 2.53 µM
  relative viability: 0.969
[1]; first compound 8 µM
  relative viability: 0.851
[2]; first compound 0.04 µM
  relative viability: 0.605
[2]; first compound 0.1265 µM
  relative viability: 0.648
[2]; first compound 0.4 µM
  relative viability: 0.604
[2]; first compound 1.265 µM
  relative viability: 0.638
[2]; first compound 4 µM
  relative viability: 0.556
[3]; first compound 0.04 µM
  relative viability: 0.806
[3]; first compound 0.1265 µM
  relative viability: 0.834
[3]; first compound 0.4 µM
  relative viability: 0.842
[3]; first compound 1.265 µM
  relative viability: 0.857
[3]; first compound 4 µM
  relative viability: 0.856
[4]; first compound 0.08 µM
  relative viability: 0.897
[4]; first compound 0.253 µM
  relative viability: 0.707
[4]; first compound 0.8 µM
  relative viability: 0.908
[4]; first compound 2.53 µM
  relative viability: 0.873
[4]; first compound 8 µM
  relative viability: 0.76

## NCI-H23
[1]; first compound 0.08 µM
  relative viability: 1.25
[1]; first compound 0.253 µM
  relative viability: 0.871
[1]; first compound 0.8 µM
  relative viability: 1.2
[1]; first compound 2.53 µM
  relative viability: 1.04
[1]; first compound 8 µM
  relative viability: 1.16
[2]; first compound 0.04 µM
  relative viability: 0.501
[2]; first compound 0.1265 µM
  relative viability: 0.562
[2]; first compound 0.4 µM
  relative viability: 0.437
[2]; first compound 1.265 µM
  relative viability: 0.469
[2]; first compound 4 µM
  relative viability: 0.309
[3]; first compound 0.04 µM
  relative viability: 0.731
[3]; first compound 0.1265 µM
  relative viability: 0.549
[3]; first compound 0.4 µM
  relative viability: 0.554
[3]; first compound 1.265 µM
  relative viability: 0.437
[3]; first compound 4 µM
  relative viability: 0.447
[4]; first compound 0.08 µM
  relative viability: 0.784
[4]; first compound 0.253 µM
  relative viability: 0.614
[4]; first compound 0.8 µM
  relative viability: 0.644
[4]; first compound 2.53 µM
  relative viability: 0.486
[4]; first compound 8 µM
  relative viability: 0.69

## NCI-H322M
[1]; first compound 0.08 µM
  relative viability: 1.33
[1]; first compound 0.253 µM
  relative viability: 1.15
[1]; first compound 0.8 µM
  relative viability: 1.26
[1]; first compound 2.53 µM
  relative viability: 1.22
[1]; first compound 8 µM
  relative viability: 1.19
[2]; first compound 0.04 µM
  relative viability: 0.506
[2]; first compound 0.1265 µM
  relative viability: 0.491
[2]; first compound 0.4 µM
  relative viability: 0.512
[2]; first compound 1.265 µM
  relative viability: 0.468
[2]; first compound 4 µM
  relative viability: 0.542
[3]; first compound 0.04 µM
  relative viability: 1.02
[3]; first compound 0.1265 µM
  relative viability: 0.882
[3]; first compound 0.4 µM
  relative viability: 0.832
[3]; first compound 1.265 µM
  relative viability: 0.944
[3]; first compound 4 µM
  relative viability: 0.876
[4]; first compound 0.08 µM
  relative viability: 0.909
[4]; first compound 0.253 µM
  relative viability: 0.85
[4]; first compound 0.8 µM
  relative viability: 0.831
[4]; first compound 2.53 µM
  relative viability: 0.89
[4]; first compound 8 µM
  relative viability: 0.85

## NCI-H441
[1]; first compound 0.08 µM
  relative viability: 0.392
[1]; first compound 0.253 µM
  relative viability: 0.516
[1]; first compound 0.8 µM
  relative viability: 0.386
[1]; first compound 2.53 µM
  relative viability: 0.372
[1]; first compound 8 µM
  relative viability: 0.362
[2]; first compound 0.04 µM
  relative viability: 0.251
[2]; first compound 0.1265 µM
  relative viability: 0.271
[2]; first compound 0.4 µM
  relative viability: 0.181
[2]; first compound 1.265 µM
  relative viability: 0.26
[2]; first compound 4 µM
  relative viability: 0.248
[3]; first compound 0.04 µM
  relative viability: 0.904
[3]; first compound 0.1265 µM
  relative viability: 0.665
[3]; first compound 0.4 µM
  relative viability: 0.684
[3]; first compound 1.265 µM
  relative viability: 0.617
[3]; first compound 4 µM
  relative viability: 0.947
[4]; first compound 0.08 µM
  relative viability: 0.824
[4]; first compound 0.253 µM
  relative viability: 0.563
[4]; first compound 0.8 µM
  relative viability: 1.18
[4]; first compound 2.53 µM
  relative viability: 0.605
[4]; first compound 8 µM
  relative viability: 0.616

## NCI-H460
[1]; first compound 0.08 µM
  relative viability: 1.66
[1]; first compound 0.253 µM
  relative viability: 0.452
[1]; first compound 0.8 µM
  relative viability: 1.4
[1]; first compound 2.53 µM
  relative viability: 1.08
[1]; first compound 8 µM
  relative viability: 1.21
[2]; first compound 0.04 µM
  relative viability: 0.114
[2]; first compound 0.1265 µM
  relative viability: 0.152
[2]; first compound 0.4 µM
  relative viability: 0.147
[2]; first compound 1.265 µM
  relative viability: 0.204
[2]; first compound 4 µM
  relative viability: 0.0833
[3]; first compound 0.04 µM
  relative viability: 0.98
[3]; first compound 0.1265 µM
  relative viability: 0.923
[3]; first compound 0.4 µM
  relative viability: 0.952
[3]; first compound 1.265 µM
  relative viability: 0.851
[3]; first compound 4 µM
  relative viability: 0.64
[4]; first compound 0.08 µM
  relative viability: 1.18
[4]; first compound 0.253 µM
  relative viability: 0.74
[4]; first compound 0.8 µM
  relative viability: 0.976
[4]; first compound 2.53 µM
  relative viability: 0.713
[4]; first compound 8 µM
  relative viability: 0.511
